Measured values: patent US10344019B2 (priority 2010, dated 2019)
Where two headings read alike, the source gives them in different places.

Columns and labels:
Assay in all cases: microbe, parasite or virus in culture
Type in all cases: cell-based
[1] = test system: HCV 3a RLuc cells (NS5A chimeric genotype 1b Con1 replicon with consensus genotype 3a NS5A gene)
Method: (§1) Evaluation of cell-based anti-HCV activity: Antiviral potency (EC50) was determined using a Renilla luciferase (RLuc)-based HCV replicon reporter assay. To perform the assay for genotype 1 and 2a JFH-1, HCV 1b RLuc cells (harboring a dicistronic genotype 1b Con1 replicon that encodes a RLuc reporter), or HCV 1a RLuc cells (harboring a dicistronic genotype 1a H77 replicon that encodes a RLuc reporter), or HCV 2a JFH-1 Rluc cells (harboring a dicistronic genotype 2a JFH-1 replicon that encodes a RLuc reporter) were dispensed into 384-well plates. To perform the assay for genotype 2a (with M31 present) or 2b, HCV 2a Rluc or 2b Rluc cells (both with M31 present) harboring a dicistronic NS5A chimeric genotype 2a JFH-1 replicon that encodes a RLuc reporter and either genotype 2a J6 strain NS5A gene or genotype 2b MD2b-1 NS5A gene (based on Los Alamos HCV database isolates, both with M31 present) respectively, were dispensed into 384-well plates. To perform the assay for genotype 3 and 4, HCV 3a RLuc or 4a Rluc cells harboring a dicistronic NS5A chimeric genotype 1b Con1 replicon that encodes a RLuc reporter and either a consensus genotype 3a NS5A gene or genotype 4a NS5A gene (based on Los Alamos HCV database isolates) respectively, were dispensed into 384-well plates. Compounds were re-suspended in DMSO at a concentration of 10 mM and serially diluted in DMSO either manually or using an automated pipeting instrument. Serially diluted compounds were mixed with cell culture media and added to the seeded cells. […] 72 hours later, cells were lysed and Renilla luciferase activity quantified as recommended by the manufacturer (Promega-Madison, Wis.). Non-linear regression was performed to calculate EC50 values.

[2] = test system: HCV 1b RLuc cells (dicistronic genotype 1b Con1 replicon, RLuc reporter)
Method: as §1

[3] = test system: HCV 1a RLuc cells (dicistronic genotype 1a H77 replicon, RLuc reporter); settings: genotype 1a H77 replicon, read-out: 1a
Method: as §1

[4] = test system: HCV 2a JFH-1 Rluc cells (dicistronic genotype 2a JFH-1 replicon, RLuc reporter); settings: genotype 2a JFH-1 replicon, read-out: 2a JFH
Method: as §1

[5] = Hepatitis C virus, read-out: 3a, Table 2, genotype 3a NS5A chimeric replicon
[6] = Hepatitis C virus, 72 h, read-out: 1b (nM)
[7] = Hepatitis C virus, 72 h, Table 2, 72 hours
[8] = Hepatitis C virus, read-out: 3a, genotype 3a NS5A chimeric 1b Con1 replicon
[9] = Hepatitis C virus, read-out: 1b (nM)
[10] = Hepatitis C virus, RLuc reporter
[11] = read-out: 3a, genotype 3a NS5A chimeric 1b Con1 replicon
[12] = Hepatitis C virus, 72 h, Table 1, 72 hours

Row | SMILES | EC50 [1, 8] [pM] | EC50 [2, 9] [nM] | EC50 [3, 10] [pM] | EC50 [4, 10] [pM] | further results
1 | COC(=O)N[C@H](C(=O)N1[C@@H]2CC[C@@H](C2)[C@H]1c1ncc(-c2ccc(-c3ccc4cc(-c5cnc([C@@H]6CC7(CC7)CN6C(=O)C(c6ccccc6)N6CCOCC6)[nH]5)ccc4c3)cc2)[nH]1)C(C)C (stereo partly drawn) [Example 28] | – | – | – | – | EC50 [1, 5]: 1 to 990 pM; EC50 [2, 6]: 0.023 nM; EC50 [3, 7]: 1000 to 44000 pM; EC50 [4, 7]: 1000 to 44000 pM
2 | COC(=O)N[C@H](C(=O)N1CCC[C@H]1c1ncc(-c2ccc3cc(-c4ccc(-c5cnc([C@@H]6C[C@H](C)CN6C(=O)[C@H](NC(=O)OC)c6ccccc6)[nH]5)cc4)ccc3c2)[nH]1)C(C)C [Example 32] | – | – | – | – | EC50 [1, 5]: > 5000 pM; EC50 [2, 6]: 0.02 nM; EC50 [3, 7]: 1 to 999 pM; EC50 [4, 7]: 1 to 999 pM
3 | COC(=O)N[C@H](C(=O)N1CCC[C@H]1c1ncc(-c2ccc3cc(-c4ccc5c(c4)OCc4nc([C@@H]6CCCN6C(=O)[C@H](NC(=O)OC)c6ccccc6)[nH]c4-5)ccc3c2)[nH]1)C(C)C [Example 172] | 1 to 990 | 0.011 | 1 to 999 | 1 to 999 | –
4 | CCN[C@@H](C(=O)N1CCC[C@H]1c1nc(-c2ccc(-c3ccc4cc(-c5c[nH]c([C@@H]6CCCN6C(=O)[C@@H](NC(=O)OC)C(C)C)n5)ccc4c3)cc2)c[nH]1)c1ccccc1 [Example 165] | 1 to 990 | 0.009 | 1 to 999 | 1 to 999 | –
5 | COC(=O)NC(C(=O)N1CCC[C@H]1c1ncc(-c2ccc3c(c2)C(F)(F)c2cc(-c4ccc(-c5cnc([C@@H]6CCCN6C(=O)[C@H](NC(=O)OC)c6ccccc6)[nH]5)cc4)ccc2-3)[nH]1)C(C)C (stereo partly drawn) [Example 194] | 1000 to 4990 | 0.01 | 1000 to 44000 | 1000 to 44000 | –
6 | COC(=O)N[C@H](C(=O)N1CCC[C@H]1c1ncc(-c2ccc(-c3ccc4cc(-c5cnc([C@@H]6CCCN6C(=O)C(c6ccccc6)N6CCOCC6)[nH]5)ccc4c3)cc2)[nH]1)C(C)C (stereo partly drawn) [Example 120] | 1 to 990 | 0.014 | 1 to 999 | 1 to 999 | –
7 | CCN(CC)[C@@H](C(=O)N1CCC[C@H]1c1ncc(-c2ccc(-c3ccc4cc(-c5cnc([C@@H]6CCCN6C(=O)[C@@H](NC(=O)OC)C6CCOCC6)[nH]5)ccc4c3)cc2)[nH]1)c1ccccc1 [Example 171] | 1 to 990 | 0.026 | 1 to 999 | 1 to 999 | –
8 | COC(=O)N[C@H](C(=O)N1CCC[C@H]1c1ncc(-c2ccc3cc(-c4ccc(-c5cnc([C@]6(F)CCCN6C(=O)[C@H]6c7ccccc7CCN6C)[nH]5)cc4)ccc3c2)[nH]1)C(C)C [Example 152] | 1000 to 4990 | 0.751 | > 44000 | > 44000 | –
9 | COC(=O)N[C@H](C(=O)N1CCC[C@H]1c1ncc(-c2ccc3cc(-c4ccc(-c5cnc([C@@H]6CCCN6C(=O)[C@H](NC(=O)OC)c6ccccc6F)[nH]5)cc4)ccc3c2)[nH]1)C(C)C [Example 149] | – | – | – | – | EC50 [1, 11]: 1 to 990 pM; EC50 ([2]; read-out: 1b): 0.005 nM; EC50 ([3]; RLuc reporter): 1 to 999 pM; EC50 ([4]; RLuc reporter): 1 to 999 pM
10 | COC(=O)N[C@H](C(=O)N1CCC[C@H]1c1ncc(-c2ccc3cc(-c4ccc(-c5cnc([C@@H]6C[C@H](C)CN6C(=O)[C@H](NC(=O)OC)c6ccccc6)[nH]5)cc4)ccc3c2)[nH]1)C(C)C [Example 130] | 1 to 990 | 0.006 | 1 to 999 | 1 to 999 | –
11 | COC(=O)N[C@H](C(=O)N1CCC[C@H]1c1ncc(-c2ccc3cc(-c4ccc(-c5cnc([C@@H]6CCCN6C(=O)[C@H](NC(=O)CC6CCOCC6)c6ccccc6)[nH]5)cc4)ccc3c2)[nH]1)C(C)C [Example 212] | 1 to 990 | 0.018 | 1 to 999 | 1 to 999 | –
12 | COC(=O)N[C@H](C(=O)N1CCC[C@H]1c1ncc(-c2ccc(-c3ccc4cc(-c5cnc([C@@H]6CCCN6C(=O)[C@@H](NC(=O)OC)C(C)C)[nH]5)ccc4c3)cc2)[nH]1)c1ccc(Cl)cc1 [Example 106] | 1000 to 4990 | 0.024 | 1000 to 44000 | 1000 to 44000 | –
13 | COC(=O)N[C@H](C(=O)N1CCC[C@H]1c1ncc(-c2ccc(-c3ccc(-c4ccc(-c5cnc([C@@H]6CCCN6C(=O)[C@H](NC(=O)OC)c6ccccc6)[nH]5)cc4)cc3)cc2)[nH]1)C(C)C [Example 193] | – | – | – | – | EC50 [1, 11]: 1 to 990 pM; EC50 ([2]; read-out: 1b): 0.005 nM; EC50 ([3]; RLuc reporter): 1 to 999 pM; EC50 ([4]; RLuc reporter): 1 to 999 pM
14 | COC(=O)N[C@H](C(=O)N1CC(=O)C[C@H]1c1ncc(-c2ccc(-c3ccc4cc(-c5cnc([C@@H]6CCCN6C(=O)[C@@H](c6ccccc6)N(C)C)[nH]5)ccc4c3)cc2)[nH]1)C(C)C [Example 33] | – | – | – | – | EC50 [1, 5]: 1 to 990 pM; EC50 [2, 6]: 0.009 nM; EC50 [3, 7]: 1 to 999 pM; EC50 [4, 7]: 1 to 999 pM
15 | COC(=O)N[C@H](C(=O)N1CCC[C@H]1c1ncc(-c2ccc3cc(-c4ccc(-c5cnc([C@@H]6CCCN6C(=O)[C@H](NC(=O)OC)c6ccc(OC)cc6)[nH]5)cc4)ccc3c2)[nH]1)C(C)C [Example 109] | > 5000 | 1.6 | 1000 to 44000 | > 44000 | –
16 | COC(=O)N[C@H](C(=O)N1CCC[C@H]1c1ncc(-c2ccc3c4c(ccc3c2)-c2ccc(-c3cnc([C@@H]5CCCN5C(=O)C(c5ccccc5)N(C)C)[nH]3)cc2CO4)[nH]1)C(C)C (stereo partly drawn) [Example 3] | – | – | – | – | EC50 ([1]; Hepatitis C virus, read-out: 3a, Table 1, genotype 3a NS5A chimeric replicon): 1 to 990 pM; EC50 [2, 6]: 0.011 nM; EC50 [3, 12]: 1 to 999 pM; EC50 [4, 12]: 1 to 999 pM
17 | COC(=O)N[C@H](C(=O)N1CCC[C@H]1c1ncc(-c2ccc(-c3ccc4cc(-c5cnc([C@@H]6CCCN6C(=O)[C@@H](NC(=O)OC)C(C)C)[nH]5)ccc4c3)cc2)[nH]1)c1ccc(OC)cc1 [Example 108] | > 5000 | 0.028 | 1 to 999 | 1000 to 44000 | –
18 | COC(=O)N[C@H](C(=O)N1C[C@@H](C#N)C[C@H]1c1ncc(-c2ccc3cc(-c4ccc(-c5cnc([C@@H]6CCCN6C(=O)[C@@H](c6ccccc6)N(C)C)[nH]5)cc4)ccc3c2)[nH]1)C(C)C [Example 137] | 1 to 990 | 0.012 | 1 to 999 | 1 to 999 | –
19 | COC(=O)N[C@H](C(=O)N1CCC[C@H]1c1ncc(-c2ccc(-c3ccc(-c4ccc(-c5cnc([C@@H]6CCCN6C(=O)[C@H](NC(=O)OC)c6ccccc6)[nH]5)cc4)cc3)cc2)[nH]1)C(C)C [Example 192] | 1 to 990 | 0.004 | 1 to 999 | 1 to 999 | –
20 | COC(=O)N[C@H](C(=O)N1CCC[C@H]1c1ncc(-c2ccc3cc(-c4ccc(-c5cnc([C@@H]6CCCN6C(=O)[C@H](NC(=O)OC)c6ccccc6)[nH]5)cc4)ccc3c2)[nH]1)C(C)C [Example 29] | – | – | – | – | EC50 [1, 5]: 1 to 990 pM; EC50 [2, 6]: 0.014 nM; EC50 [3, 7]: 1 to 999 pM; EC50 [4, 7]: 1 to 999 pM
21 | COC(=O)NC(C(=O)N1CCC[C@@]1(F)c1ncc(-c2ccc(-c3ccc4cc(-c5cnc([C@@H]6CCCN6C(=O)[C@@H](NC(=O)OC)C(C)C)[nH]5)ccc4c3)cc2)[nH]1)c1ccc2c(c1)OCO2 (stereo partly drawn) [Example 143] | > 5000 | 0.025 | 1 to 999 | 1000 to 44000 | –
22 | COC(=O)N[C@H](C(=O)N1CCC[C@H]1c1ncc(-c2ccc3cc(-c4ccc(-c5cnc([C@@H]6CCCN6C(=O)C(c6ccc7c(c6)OCO7)N(C)C)[nH]5)cc4)ccc3c2)[nH]1)C(C)C (stereo partly drawn) [Example 151] | 1000 to 4990 | 0.038 | 1000 to 44000 | 1000 to 44000 | –
23 | COC(=O)N[C@H](C(=O)N1C[C@H](C#N)C[C@H]1c1ncc(-c2ccc3cc(-c4ccc(-c5cnc([C@@H]6CCCN6C(=O)[C@@H](c6ccccc6)N(C)C)[nH]5)cc4)ccc3c2)[nH]1)C(C)C [Example 144] | 1 to 990 | 0.013 | 1 to 999 | 1 to 999 | –
24 | COC(=O)N[C@H](C(=O)N1CCC[C@H]1c1ncc(-c2ccc3cc(-c4ccc(-c5cnc([C@@H]6SCCN6C(=O)[C@H](NC(=O)OC)c6ccccc6)[nH]5)cc4)ccc3c2)[nH]1)C(C)C [Example 117] | 1 to 990 | 0.007 | 1 to 999 | 1 to 999 | –
